Key:
fibroblast monolayers [1] = test: Cholesterol efflux from ^3 H-cholesterol labeled fibroblasts to plasma; assay type: cell-based, human
Method: Fibroblast monolayers were equilibrated with ^3 H-FC-labeled native plasma or with isolated ^3 H-labeled LDL, as specified for each experiment. Following incubation, the dishes were washed with albumin-complete PBS and then (×4) with complete PBS. They were then incubated for 3 min with unlabeled plasma or lipoprotein fractions and the rate of appearance of radioactivity in the medium determined. Samples of medium (100 μl) were immediately chilled in ice water and centrifuged (10 min, 2000× g) at 0-2° C. ^3 H-cholesterol radioactivity in the supernatant was either assayed directly, or fractionated by agarose gel electrophoresis. FC efflux was linear as previously reported (Kawano et al., Biochemistry, 32: 5025-5028 (1993)).
For electrophoresis, 20 μl portions of labeled medium were added to strips of 0.75% w/v agarose in 0.025M barbital buffer (pH 8.6) and separated as previously described (Fielding et al., Biochemistry, 30: 8551-8557 (1991)). 2.5 mm gel fractions were then collected, and radioactivity measured. The location of major lipoprotein classes was determined from strips run simultaneously with whole native plasma equilibrated (60 min, 37° C.) with ^3 H-FC.
^c Percent loss of label from cells prelabeled (10 min, 37° C.

fibroblast monolayers [2] = test: Distribution of cell-associated LDL ^3 H-FC label by release with unlabeled lipoproteins/plasma; assay type: cell-based, human; details: 2 mM NEM; 10 min, 37° C. with 80% v/v plasma-PBS; control 0.57 ± 0.03
Method: Label released by unlabeled LDL (open circles); label released by unlabeled HDL but not unlabeled LDL (closed triangles) and label released with neither LDL or HDL (closed circles) expressed as percent of total label released. LDL specific activity was […]. All fractions are defined in terms of label released by either unlabeled lipoprotein within 5 min of incubation at 37° C.
Cell monolayers equilibrated with 7% plasma-DMEM were first incubated with ^3 H-FC labeled LDL as described above. At intervals, dishes of cells were washed, then incubated with unlabeled LDL or HDL at their plasma concentrations. A fraction of cell-associated label was rapidly released; maximum recovery in the medium occurred within 10 min at 37° C. In FIG. 4, the proportions of cell label which were LDL-releasable, LDL-resistant but HDL-releasable, and resistant to both LDL and HDL are shown as a function of time.
^b Proportion of cell cholesterol label retained in the cells

fibroblast monolayers [3] = test: Transfer of intracellular ^3 H-FC to the cell surface (cholesterol oxidase accessibility); assay type: cell-based, human
Method: This assay utilized the finding (see Example 1) that only FC in the caveolar fraction of the plasma membrane fraction was modified by cholesterol oxidase in unfixed fibroblast monolayers.
The rate at which intracellular LDL-derived ^3 H-FC became accessible at the cell surface was measured as follows. Cell monolayers were labeled with ^3 H-FC LDL under the conditions shown for each experiment. Unbound and adsorbed LDL were removed as described above. In some experiments metabolic inhibitors of different transport steps were then added for 30 min at 15° C. […] Cholesterol oxidase (Boehringer-Manheim, Indianapolis, Ind., USA) was added in PBS to a final concentration of 1 U ml^-1. Incubation was for 4 h at 0° C. The cells were washed with ice-cold PBS, and extracted with 0. 1N NAOH. Cell total lipid was extracted with chloroform-methanol (1:1 v/v). […] .
Fibroblast monolayers were prelabeled with FC-labeled LDL for 2 min at 31° C. Medium and surface-bound labeled LDL were removed as described above. The cells were incubated with inhibitors of intracellular transport for 30 min at 15° C. Movement of FC label to the cell surface remained negligible (FIG. 11).
^a Relative to rate in the absence of inhibitor. Values are expressed

fibroblast monolayers [4] = test: D2O-Ficoll density gradient fractionation of ^3 H-FC labeled fibroblasts; assay type: cell-based, human; details: clathrin fraction d 1.12 g ml^-1; NEM 2 mM
Method: Early endosomal vesicles were labeled with LDL-derived ^3 H-FC by a modification of procedures described by Woodman & Warren (1991) J. Cell Biol., 112:1133-1141. Fibroblast monolayers in 10 cm dishes were washed in ice-cold PBS. The cells were labeled by incubation (2 h, 4° C.) with ^3 H-FC LDL. The monolayers were washed in PBS and brought to 31° C. for 0-15 min. The cells were then quickly chilled on ice, and cold unlabeled LDL was added (15 min, 4° C.) to displace any remaining surface-bound labeled LDL and all subsequent steps were carried out at 0-4° C.
Cells from three 10 cm dishes were used for each gradient. Monolayers were washed with 140 mM sucrose, 0.5 mM MgCl2, 1 mM EGTA, 20 mM 2-[N-morpholino]ethanesulfonic acid (MES), 70 mM potassium acetate, pH 6.6 (`vesicle buffer`) (Woodman & Warren, supra.). The cells were scraped from the dishes. Dithiothreitol (1 mm) and protease inhibitors (PMSF, 200 μg ml^-1; benzamidine 0.5 mM; soybean trypsin inhibitor 10 μg ml^-1; leupeptin 1 μg ml^-1) were added. The cells were broken with a Dounce homogenizer (15 strokes) and the homogenate centrifuged at 500× g for 5 min. Ribonuclease A (50 μg ml^-1) was added. After 30 min a second centrifugation was carried out (7000× g, 30 min). Supernatant (~2 ml) was layered on a 10 ml continuous gradient of 2% Ficoll-9% D2 O to 20% Ficoll-90% D2 O in vesicle buffer containing 1 mM dithiothreitol. Centrifugation in a Beckman SW41 rotor was carried out at 80,000× g for 16 h. Fractions (~0.6 ml) were collected dropwise and the distribution of FC label determined. Because of slight variation in fraction size between gradients, data were normalized to 20 fractions for comparison between experiments. Solution density was determined gravimetrically using 100 μl portions of each fraction. The density of a given fraction was reproducible ±0.5% between experiments.
Fibroblast monolayers were incubated with ^3 H-FC LDL for 30 min at 31° C. to predominantly label the intermediate density vesicle fraction. Cell surface LDL was removed as described above. […]

vesicular transport = details: Tageya et al.; cited from earlier work

Structure (SMILES): CCN1C(=O)C=CC1=O [N-ethylmaleimide]
- initial rate of efflux of FC from prelabeled cells to plasma (fibroblast monolayers [1]): increased several-fold
- % efflux to plasma (3 min) (fibroblast monolayers [1]; 2 mM NEM, 80% v/v plasma-PBS, 37° C., control 13.3 ± 0.1): 32.4 ± 0.2%
- Lipoprotein-resistant label (proportion of cell cholesterol label retained) (fibroblast monolayers [2]): 0.24 ± 0.03
- transport of intracellular ^3 H-FC to the cell surface/caveolae (fibroblast monolayers [3]): inhibited the return of FC to the cell surface, but less effectively than did nocodazole
- % transfer of intracellular ^3 H-FC to the cell surface, relative to rate in absence of inhibitor (fibroblast monolayers [3]; NEM 2 mM, KNO3 50 mM, nocodazole, brefeldin A, vinblastine 40 μM, pulse labeled 2 min 31° C., then 30 min 31° C.): 50 ± 3%
- FC label in density gradient (fibroblast monolayers [4]): no peak of FC label was present with clathrin at d 1.12 g ml^-1
- concentration for maximal inhibition in assays of vesicular transport in vitro (vesicular transport): 1 mM

Source: patent publication US5922554A, “Inhibition of cellular uptake of cholesterol” (The Regents of the University of California, priority 1996, dated 1999)
